Reference: US20150133467A1, “SCREENING METHOD, PROTEIN INSTABILITY AND/OR STABILITY INDUCERS, AND PROTEIN ACTIVITY ASSESSMENT” (KYOTO UNIVERSITY, priority 2012, published 2015)

Columns and labels:
FLAGx3-DYRK1A protein = biological target: T1, FLAGx3-DYRK1A protein (Homo sapiens, UniProt Q13627); assay: Screening with FLAGx3-DYRK1A-2A-HAx3-EGFP assay cells, Western blotting; type: cell-based; details: Western blot; for amount of FLAGx3-DYRK1A (FLAG-DYRK1A) protein within the cells: FIGS. 9-12, constant concentration not stated; for amount of intracellular DYRK1A protein: concentration of 4 μm, FIG. 8
T1 construct: 2A peptide (what is left of it after self-cleavage) (C); expressed in transfected cells
Method: Cultured cells with expressed FLAGx3-DYRK1A-2A-HAx3-EGFP (assay cells) were cultured on a plate, and test compounds of a constant concentration were added to the culture solution for a further cultivation. After the cultivation, the amounts of FLAGx3-DYRK1A, HAx3-EGFP, and GAPDH were quantitatively analyzed by a Western blotting method, and the ratio was analyzed.
After the cultivation, the amounts of FLAGx3-DYRK1A, HAx3-EGFP, and GAPDH were quantitatively analyzed by a Western blotting method, and the ratio was analyzed.
After the cultivation, the respective amounts of FLAGx3-DYRK1A, HAx3-EGFP, and GAPDH were quantitatively analyzed by a Western blotting method, and the ratio was analyzed.

EGFP-TAU protein = assay: Screening with mCherry-2A-EGFP-TAU assay cells, Western blot analysis; type: cell-based, human
From the text: An assay cell having the simultaneous expression system of EGFP-fused TAU and mCherry (mCherry-2A-EGFP-TAU) as shown in the model diagram of FIG. 5 was produced. Specifically, the process was as follows. EGFP was fused with TAU (EGFP-TAU), and further, it was connected in-frame by using 2A peptide and mCherry gene that codes a red fluorescent protein (mCherry-2A-EGFP-TAU). The 2A peptide is an amino acid sequence enabling a bicistronic gene expression. Thereby, mCherry-2A-EGFP-TAU is translated simultaneously from the top of a single mRNA. A vector expressing the gene (mCherry-2A-EGFP-TAU) was produced in the following manner.

DYRK1A = biological target: T2, DYRK1A (Rattus norvegicus, UniProt Q63470); assay: Monitoring of DYRK1A activity inhibition using homocysteine in blood as index; type: in vivo; details: rats, oral, 18 mg/kg, FIG. 7
T2 construct: from tissue; host or cells: living rat (whole animal); blood plasma analysed for homocysteine
Method: DYRK1A inhibitor Harmine was orally administered to rats, and the post-administration homocysteine concentration in blood was measured. The specific conditions are as follows, and the results are illustrated in FIG. 7.
After dissolving the DYRK1A inhibitor Harmine in an administration solvent of 0.9% NaCl, about 1 ml per individual was orally administered (final administration concentration: 18 mg/kg). At certain interval after the administration, the blood was collected from caudate veins. From the blood, blood plasma was separated and preserved in the presence of EDTA-2Na. Analysis of the homocysteine concentration in the blood plasma was consigned to SRL. Specifically, the measurement was conducted by extracting fractures including homocysteine from the blood plasma and then analyzing the amount of homocysteine included in the extract by HPLC (see Araki A et al: Journal of Chromatography 422, 43-52 1987, Araki A: Gendai-Iryou 22, 10, 2544-2549 1990).

Row | SMILES | melting point | amount of intracellular DYRK1A protein (FLAGx3-DYRK1A protein) | further results
1 | COc1ccc2c([nH]c3c(C)nccc32)c1C#C[Si](C)(C)C [Compound 9, 8-[2-(trimethylsilyl)ethynyl]harmine] | 185 to 186 °C | – | amount of FLAGx3-DYRK1A (FLAG-DYRK1A) protein within the cells (FLAGx3-DYRK1A protein): reduces only the amount of the FLAG-DYRK1A protein; amount of the internal standard EGFP protein (FLAGx3-DYRK1A protein; FIGS. 10-11): does not affect
2 | COc1ccc(/C=C2\SC(=S)NC2=O)cc1-c1cccc(C(F)(F)F)c1 [Compound 7, (Z)-5-(3-(trifluoromethyl)phenyl-4-methoxybenzylidene)-2-thioxothiazolidin-4-one] | 209 to 210 °C | – | –
3 | COc1ccc(/C=C2\SC(=S)NC2=O)cc1C#CC1CCCCC1 [Compound 3, (Z)-5-(3-(cyclohexylethynyl)-4-methoxybenzylidene)-2-thioxothiazolidin-4-one] | 185 to 186 °C | capable of reducing | –
4 | COc1ccc2c([nH]c3c(C)nccc32)c1C#CC1CCCCC1 [Compound 10, 8-[2-(cyclohexyl)ethynyl]harmine] | 198 to 199 °C | – | amount of FLAGx3-DYRK1A (FLAG-DYRK1A) protein within the cells (FLAGx3-DYRK1A protein): reduces the FLAGx3-DYRK1A protein
5 | Fc1ccc(N2CCN(c3ccccc3)CC2)c(NC(=S)c2ccncc2)c1 [Compound 2, N-[5-fluoro-2-(4-phenyl-1-piperazinyl)phenyl]isonicotinthioamide] | 183 to 186 °C | – | effect on stability of TAU protein (EGFP-TAU protein): make TAU protein unstable and allow the protein to decompose; effect on transcription and translation of TAU (EGFP-TAU protein): not to affect at all; amount of the EGFP-TAU protein within the cells (EGFP-TAU protein; Western blot, FIG. 6): reduces only the amount of the EGFP-TAU protein; amount of the internal standard mCherry protein (EGFP-TAU protein; Western blot, FIG. 6): does not affect
6 | COc1ccc(/C=C2\SC(=S)NC2=O)cc1-c1cccc(C)c1 [Compound 5] | 204 to 205 °C | capable of reducing | –
7 | COc1ccc(/C=C2\SC(=S)NC2=O)cc1-c1cc(C)cc(C)c1 [Compound 8, (Z)-5-(3,5-dimethylphenyl-4-methoxybenzylidene)-2-thioxothiazolidin-4-one] | 238 to 239 °C | – | –
8 | COc1ccc(/C=C2\SC(=S)NC2=O)cc1-c1cc(C(F)(F)F)cc(C(F)(F)F)c1 [Compound 6, (Z)-5-(3,5-bis(trifluoromethyl)phenyl-4-methoxybenzylidene)-2-thioxothiazolidin-4-one] | 244 to 245 °C | – | –
9 | COc1ccc(/C=C2\SC(=S)NC2=O)cc1C#CC1C2CC3CC(C2)CC1C3 (stereo not drawn) [Compound 4, (Z)-5-(3-(2-adamantylethynyl)-4-methoxybenzylidene)-2-thioxothiazolidin-4-one] | 266 to 267 °C | capable of reducing | –
10 | COc1ccc2c(c1)[nH]c1c(C)nccc12 [Harmine] | – | – | homocysteine in blood (DYRK1A; after two hours from administration): raised rapidly; homocysteine in blood compared with controls (DYRK1A; for 5 hours): higher numerical values in comparison with controls
